Laboratory results as given in ChEMBL document CHEMBL1201862, “PubChem BioAssay data set” (2004).
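Step 1: Grow cells in 96-well plates. Step 2: Expose to compound for 48 hours at 5 concentrations. Step 3: Interpolate endpoints linearly; if unreached, use highest concentration. Abbreviation: GI50, concentration required for 50% inhibition of growth.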 The source made the active and inactive calls. Cut-off read from the data, not from the text of the source: active = GI50 up to about 1.1 µM and inactive = higher.

What was measured:
Test in all cases: growth of human tumour cells (NCI), 48 h
HL-60 = tested on: HL-60
SF-268 = tested on: SF-268
HT-29 = tested on: HT-29
ACHN = tested on: ACHN
KM-20L2 = tested on: KM-20L2
K562 = tested on: K562
DMS-114 = tested on: DMS-114
MOLT-4 = tested on: MOLT-4
HCT-116 = tested on: HCT-116
Malme-3M = tested on: Malme-3M
OVCAR-3 = tested on: OVCAR-3
A549 = tested on: A549
EKVX = tested on: EKVX
UACC-62 = tested on: UACC-62
HOP-92 = tested on: HOP-92

Measured: GI50

CN(C)c1ccc(-c2cc(O)c3ccccc3n2)cc1
inactive: HL-60 > 100 µM | SF-268 > 100 µM | HT-29 > 100 µM | ACHN > 100 µM | KM-20L2 > 100 µM | K562 > 100 µM | DMS-114 > 100 µM | MOLT-4 > 100 µM | HCT-116 > 100 µM | Malme-3M > 100 µM | OVCAR-3 > 100 µM | A549 > 100 µM | EKVX > 100 µM

Cc1ccccc1C1=C(C(=O)Nc2ccc(Cl)c(Cl)c2)NC(=S)NC1N (stereo not given)
inactive: SF-268 > 100 µM | HT-29 > 100 µM | ACHN > 100 µM | UACC-62 > 100 µM | KM-20L2 > 100 µM | K562 > 100 µM | DMS-114 > 100 µM | MOLT-4 > 100 µM | HCT-116 > 100 µM | Malme-3M > 100 µM | OVCAR-3 > 100 µM | A549 > 100 µM | EKVX > 100 µM

Cc1ccccc1C1=[N+]([O-])c2ccccc2C1=O
inactive: HL-60 10.3 µM | SF-268 20.5 µM | HT-29 14.5 µM | ACHN 16.9 µM | UACC-62 20.1 µM | HOP-92 49.4 µM | KM-20L2 17.9 µM | K562 20.9 µM | DMS-114 13.4 µM | MOLT-4 19 µM | HCT-116 18.5 µM | Malme-3M 18.4 µM | OVCAR-3 12.7 µM | A549 > 10 µM | EKVX 21 µM

C/C=C1\CN2CCc3c([nH]c4ccccc34)C2CC1CCO (stereo not given)
inactive: HL-60 > 100 µM | SF-268 > 100 µM | HT-29 > 100 µM | ACHN > 100 µM | HOP-92 48 µM | KM-20L2 > 100 µM | K562 > 100 µM | DMS-114 > 100 µM | MOLT-4 > 100 µM | HCT-116 > 100 µM | Malme-3M > 100 µM | OVCAR-3 > 100 µM | A549 > 100 µM | EKVX > 100 µM

CC[P+]1(c2ccccc2)CCCCC1
inactive: HL-60 > 100 µM | SF-268 > 100 µM | HT-29 > 100 µM | ACHN > 100 µM | UACC-62 > 100 µM | HOP-92 > 100 µM | KM-20L2 > 100 µM | K562 > 100 µM | DMS-114 > 100 µM | MOLT-4 > 100 µM | HCT-116 > 100 µM | Malme-3M > 100 µM | OVCAR-3 > 100 µM | A549 > 100 µM | EKVX > 100 µM

COc1ccc(C2C3=C(COC3=O)Oc3cc4c(cc32)OCO4)cc1 (stereo not given)
inactive: HL-60 3.97 µM | HT-29 3.81 µM | ACHN 21.1 µM | UACC-62 10.6 µM | HOP-92 14.9 µM | KM-20L2 11.9 µM | K562 3.85 µM | DMS-114 4.3 µM | MOLT-4 6.71 µM | HCT-116 13.2 µM | Malme-3M 56 µM | OVCAR-3 7.18 µM | A549 9.18 µM | EKVX 50.5 µM

Cc1oc2c(C)c(O)c3c(c2c1C1(C)OCCO1)C(=O)C=C(Cl)C3=O
inactive: HL-60 > 100 µM | SF-268 > 100 µM | HT-29 > 100 µM | ACHN > 100 µM | HOP-92 > 100 µM | KM-20L2 > 100 µM | K562 > 100 µM | MOLT-4 > 100 µM | HCT-116 > 100 µM | OVCAR-3 > 100 µM | A549 > 100 µM | EKVX > 100 µM

O=c1c(Cc2ccccc2)c(O)cc2n1CCC2
inactive: SF-268 > 100 µM | HT-29 > 100 µM | ACHN > 100 µM | UACC-62 > 100 µM | HOP-92 > 100 µM | KM-20L2 > 100 µM | K562 > 100 µM | DMS-114 > 100 µM | MOLT-4 > 100 µM | HCT-116 > 100 µM | Malme-3M > 100 µM | OVCAR-3 > 100 µM | A549 > 100 µM | EKVX > 100 µM

CN(C)CCN(C)C(=O)C1CCCN1C(=O)OCc1ccccc1 (stereo not given)
inactive: HL-60 34.7 µM | SF-268 > 100 µM | HT-29 > 100 µM | ACHN > 100 µM | UACC-62 > 100 µM | HOP-92 > 100 µM | KM-20L2 > 100 µM | K562 61.1 µM | DMS-114 > 100 µM | MOLT-4 > 100 µM | HCT-116 > 100 µM | Malme-3M > 100 µM | OVCAR-3 > 100 µM | A549 > 100 µM | EKVX > 100 µM

O=C(c1ccccc1)c1c(C(=O)c2ccccc2)c(-c2ccccc2)c2c(-c3ccccc3)sc(-c3ccccc3)c2c1-c1ccccc1
inactive: HL-60 > 100 µM | SF-268 > 100 µM | HT-29 > 100 µM | ACHN > 100 µM | UACC-62 > 100 µM | HOP-92 > 100 µM | KM-20L2 > 100 µM | K562 > 100 µM | DMS-114 > 100 µM | HCT-116 > 100 µM | Malme-3M > 100 µM | OVCAR-3 > 100 µM | A549 > 100 µM | EKVX > 100 µM

O=C/C(=C(/Cl)c1ccc(O)cc1)c1ccccc1
inactive: HL-60 38.5 µM | SF-268 25 µM | HT-29 27.1 µM | ACHN 20.9 µM | UACC-62 13.2 µM | HOP-92 16.6 µM | KM-20L2 31 µM | K562 45.3 µM | DMS-114 12.3 µM | MOLT-4 16.6 µM | HCT-116 18.1 µM | Malme-3M 23.7 µM | OVCAR-3 17.1 µM | A549 32.1 µM | EKVX 28.2 µM

Cc1cccc(NC2=NC(=O)C(CC(=O)Nc3ccccc3Cl)S2)c1 (stereo not given)
inactive: HL-60 > 100 µM | SF-268 > 100 µM | HT-29 > 100 µM | ACHN > 100 µM | UACC-62 > 100 µM | HOP-92 > 100 µM | KM-20L2 > 100 µM | K562 > 100 µM | DMS-114 > 100 µM | MOLT-4 > 100 µM | HCT-116 > 100 µM | Malme-3M > 100 µM | OVCAR-3 > 100 µM | A549 > 100 µM | EKVX > 100 µM

COc1ccc(N2C(=O)C3c4[nH]c5ccccc5c4C4CC(C)CC(C)C4C3C2=O)cc1 (stereo not given)
inactive: HL-60 > 100 µM | SF-268 > 100 µM | HT-29 > 100 µM | ACHN > 100 µM | UACC-62 > 100 µM | HOP-92 > 100 µM | KM-20L2 > 100 µM | K562 > 100 µM | DMS-114 > 100 µM | MOLT-4 > 100 µM | HCT-116 > 100 µM | Malme-3M > 100 µM | A549 > 100 µM | EKVX > 100 µM

Cc1ccccc1NC(=O)CC(=O)NNCC(=O)Nc1nnc(-c2ccccc2)s1
inactive: HL-60 31.5 µM | SF-268 > 100 µM | HT-29 > 100 µM | ACHN 54.2 µM | UACC-62 > 100 µM | KM-20L2 > 100 µM | K562 37.8 µM | DMS-114 43.6 µM | MOLT-4 35.7 µM | HCT-116 64.9 µM | OVCAR-3 31.4 µM | A549 > 100 µM | EKVX 49.7 µM

CCOC(=O)C1=C(Nc2cccc3ccccc23)OC/C1=N\NC(=O)c1ccccc1O
inactive: HL-60 6.93 µM | SF-268 13.4 µM | HT-29 29.7 µM | ACHN 8.63 µM | UACC-62 6.53 µM | HOP-92 11.1 µM | KM-20L2 29 µM | K562 10.1 µM | DMS-114 11.4 µM | MOLT-4 12.6 µM | HCT-116 19.1 µM | Malme-3M 28.9 µM | OVCAR-3 10.6 µM | A549 16.4 µM | EKVX 21.3 µM

COc1ccccc1/C=C\c1cc(OC)c(OC)c(OC)c1
inactive: HL-60 3.22 µM | HT-29 3.97 µM | ACHN 33.8 µM | UACC-62 5.9 µM | HOP-92 8.65 µM | K562 4.06 µM | DMS-114 6.41 µM | MOLT-4 4.31 µM | HCT-116 9.23 µM | Malme-3M 16.5 µM | OVCAR-3 10.2 µM | A549 6.08 µM | EKVX 15.2 µM

Cn1cnc([N+](=O)[O-])c1Sc1ccccn1
inactive: SF-268 > 100 µM | HT-29 > 100 µM | ACHN > 100 µM | UACC-62 > 100 µM | HOP-92 > 100 µM | K562 > 100 µM | DMS-114 > 100 µM | MOLT-4 38.5 µM | HCT-116 > 100 µM | Malme-3M 68.4 µM | OVCAR-3 > 100 µM | A549 > 100 µM | EKVX > 100 µM

BrC(Br)([P+](c1ccccc1)(c1ccccc1)c1ccccc1)[P+](c1ccccc1)(c1ccccc1)c1ccccc1
inactive: HL-60 7.94 µM | SF-268 24 µM | HT-29 13.6 µM | ACHN 17.7 µM | UACC-62 14.6 µM | HOP-92 11.1 µM | KM-20L2 24.9 µM | DMS-114 13.4 µM | MOLT-4 7.91 µM | HCT-116 17.3 µM | Malme-3M 12.5 µM | OVCAR-3 11.9 µM | A549 26.3 µM | EKVX 19.9 µM

CC(C)C1=Cc2ccc3c(c2C(=O)C1=O)CCCC3(C)C [MILTIRONE]
inactive: HL-60 2.37 µM | SF-268 6.9 µM | HT-29 20.1 µM | ACHN 5.82 µM | UACC-62 5.66 µM | HOP-92 4.18 µM | KM-20L2 20.3 µM | K562 2.67 µM | MOLT-4 2.19 µM | HCT-116 1.81 µM | Malme-3M 4.74 µM | OVCAR-3 2.58 µM | A549 18.3 µM | EKVX 14.5 µM
